Data as given in PubChem BioAssay (NCI).
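Method: 48-hour compound exposure of cells in 96-well plates, five concentrations, linear interpolation of endpoints. TGI is the concentration that stops growth completely.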

Columns and labels:
Experiment in all cases: NCI tumour cell line growth inhibition, 48 h
U251 CNS = system: U251 CNS
HT29 colon = system: HT29 colon
SN12C renal = system: SN12C renal
ACHN renal = system: ACHN renal
HOP-18 NSCLC = system: HOP-18 NSCLC
DLD-1 colon = system: DLD-1 colon
HCC-2998 colon = system: HCC-2998 colon
SF-295 CNS = system: SF-295 CNS
KM20L2 colon = system: KM20L2 colon
SK-MEL-5 melanoma = system: SK-MEL-5 melanoma
HL-60(TB) leukemia = system: HL-60(TB) leukemia
HOP-62 NSCLC = system: HOP-62 NSCLC
NCI-H460 lung = system: NCI-H460 lung
KM12 colon = system: KM12 colon
CCRF-CEM leukemia = system: CCRF-CEM leukemia
OVCAR-8 ovarian = system: OVCAR-8 ovarian
RXF 393 renal = system: RXF 393 renal
UACC-62 melanoma = system: UACC-62 melanoma
SNB-75 CNS = system: SNB-75 CNS
SK-OV-3 ovarian = system: SK-OV-3 ovarian
K-562 leukemia = system: K-562 leukemia
OVCAR-5 ovarian = system: OVCAR-5 ovarian
HCT-15 colon = system: HCT-15 colon
MALME-3M melanoma = system: MALME-3M melanoma
MOLT-4 leukemia = system: MOLT-4 leukemia
SK-MEL-28 melanoma = system: SK-MEL-28 melanoma
SK-MEL-2 melanoma = system: SK-MEL-2 melanoma
UO-31 renal = system: UO-31 renal
NCI-H522 lung = system: NCI-H522 lung
OVCAR-3 ovarian = system: OVCAR-3 ovarian
IGROV1 ovarian = system: IGROV1 ovarian
SF-539 CNS = system: SF-539 CNS
LXFL 529 NSCLC = system: LXFL 529 NSCLC
M14 melanoma = system: M14 melanoma
SNB-78 CNS = system: SNB-78 CNS
OVCAR-4 ovarian = system: OVCAR-4 ovarian
A549 NSCLC = system: A549 NSCLC
HOP-92 NSCLC = system: HOP-92 NSCLC
EKVX NSCLC = system: EKVX NSCLC
XF 498 CNS = system: XF 498 CNS
TK-10 renal = system: TK-10 renal
UACC-257 melanoma = system: UACC-257 melanoma
HCT-116 colon = system: HCT-116 colon
LOX IMVI melanoma = system: LOX IMVI melanoma
M19-MEL melanoma = system: M19-MEL melanoma
SR leukemia = system: SR leukemia
SW-620 colon = system: SW-620 colon
CAKI-1 renal = system: CAKI-1 renal
NCI-H226 lung = system: NCI-H226 lung
SF-268 CNS = system: SF-268 CNS
DU-145 prostate = system: DU-145 prostate
SNB-19 CNS = system: SNB-19 CNS
MDA-MB-231 breast = system: MDA-MB-231 breast
BT-549 breast = system: BT-549 breast
MDA-MB-435 = system: MDA-MB-435
786-0 renal = system: 786-0 renal
MCF7 breast = system: MCF7 breast
NCI/ADR-RES ovarian = system: NCI/ADR-RES ovarian
A498 renal = system: A498 renal
MDA-N = system: MDA-N
NCI-H23 lung = system: NCI-H23 lung
T-47D breast = system: T-47D breast
COLO 205 colon = system: COLO 205 colon
RPMI-8226 leukemia = system: RPMI-8226 leukemia
PC-3 prostate = system: PC-3 prostate
HS 578T breast = system: HS 578T breast
DMS 114 small cell lung = system: DMS 114 small cell lung
DMS 273 small cell lung = system: DMS 273 small cell lung

SMILES: CC(=O)OCc1nnn2c1CCC2
- TGI (U251 CNS): > 100 µM
- TGI (HT29 colon): > 100 µM
- TGI (SN12C renal): > 100 µM
- TGI (ACHN renal): > 100 µM
- TGI (HOP-18 NSCLC): > 100 µM
- TGI (DLD-1 colon): > 100 µM
- TGI (HCC-2998 colon): > 100 µM
- TGI (SF-295 CNS): > 100 µM
- TGI (KM20L2 colon): > 100 µM
- TGI (SK-MEL-5 melanoma): > 100 µM
- TGI (HL-60(TB) leukemia): > 100 µM
- TGI (HOP-62 NSCLC): > 100 µM
- TGI (NCI-H460 lung): > 100 µM
- TGI (KM12 colon): > 100 µM
- TGI (CCRF-CEM leukemia): > 100 µM
- TGI (OVCAR-8 ovarian): > 100 µM
- TGI (RXF 393 renal): > 100 µM
- TGI (UACC-62 melanoma): > 100 µM
- TGI (SNB-75 CNS): > 100 µM
- TGI (SK-OV-3 ovarian): > 100 µM
- TGI (K-562 leukemia): > 100 µM
- TGI (OVCAR-5 ovarian): > 100 µM
- TGI (HCT-15 colon): > 100 µM
- TGI (MALME-3M melanoma): > 100 µM
- TGI (MOLT-4 leukemia): > 100 µM
- TGI (SK-MEL-28 melanoma): > 100 µM
- TGI (SK-MEL-2 melanoma): > 100 µM
- TGI (UO-31 renal): > 100 µM
- TGI (NCI-H522 lung): > 100 µM
- TGI (OVCAR-3 ovarian): > 100 µM
- TGI (IGROV1 ovarian): > 100 µM
- TGI (SF-539 CNS): > 100 µM
- TGI (LXFL 529 NSCLC): > 100 µM
- TGI (M14 melanoma): > 100 µM
- TGI (SNB-78 CNS): > 100 µM
- TGI (OVCAR-4 ovarian): > 100 µM
- TGI (A549 NSCLC): > 100 µM
- TGI (HOP-92 NSCLC): > 100 µM
- TGI (EKVX NSCLC): > 100 µM
- TGI (XF 498 CNS): > 100 µM
- TGI (TK-10 renal): > 100 µM
- TGI (UACC-257 melanoma): > 100 µM
- TGI (HCT-116 colon): > 100 µM
- TGI (LOX IMVI melanoma): > 100 µM
- TGI (M19-MEL melanoma): > 100 µM
- TGI (SR leukemia): > 100 µM
- TGI (SW-620 colon): > 100 µM

SMILES: CC1OC(OC2C[C@](O)(C(=O)CBr)Cc3c(O)c4c(c(O)c32)C(=O)c2ccccc2C4=O)C(F)C(O)C1O (stereo partly specified)
- TGI (U251 CNS): > 74.7 µM
- TGI (CAKI-1 renal): 49 µM
- TGI (HT29 colon): > 56.1 µM
- TGI (NCI-H226 lung): 36.4 µM
- TGI (SN12C renal): > 73.3 µM
- TGI (ACHN renal): 7.08 µM
- TGI (SF-268 CNS): 73.7 µM
- TGI (HCC-2998 colon): > 100 µM
- TGI (SF-295 CNS): 27.5 µM
- TGI (DU-145 prostate): 63.2 µM
- TGI (SNB-19 CNS): > 70.5 µM
- TGI (MDA-MB-231 breast): 25.2 µM
- TGI (SK-MEL-5 melanoma): 24.4 µM
- TGI (HL-60(TB) leukemia): 3.22 µM
- TGI (HOP-62 NSCLC): 66 µM
- TGI (NCI-H460 lung): 48.6 µM
- TGI (BT-549 breast): > 100 µM
- TGI (MDA-MB-435): 31.2 µM
- TGI (KM12 colon): > 84.1 µM
- TGI (786-0 renal): > 59.5 µM
- TGI (CCRF-CEM leukemia): 3.04 µM
- TGI (OVCAR-8 ovarian): > 100 µM
- TGI (MCF7 breast): > 100 µM
- TGI (RXF 393 renal): 35.6 µM
- TGI (UACC-62 melanoma): 34.5 µM
- TGI (SNB-75 CNS): 56.2 µM
- TGI (SK-OV-3 ovarian): > 100 µM
- TGI (K-562 leukemia): > 38.8 µM
- TGI (OVCAR-5 ovarian): > 59.7 µM
- TGI (NCI/ADR-RES ovarian): > 67.7 µM
- TGI (HCT-15 colon): 21.6 µM
- TGI (MALME-3M melanoma): 16.5 µM
- TGI (A498 renal): 30.9 µM
- TGI (SK-MEL-28 melanoma): > 66.1 µM
- TGI (MDA-N): 44.7 µM
- TGI (SK-MEL-2 melanoma): 79.5 µM
- TGI (UO-31 renal): 8.9 µM
- TGI (NCI-H522 lung): 23.5 µM
- TGI (NCI-H23 lung): 36.2 µM
- TGI (OVCAR-3 ovarian): 42.9 µM
- TGI (IGROV1 ovarian): 60.9 µM
- TGI (T-47D breast): > 82 µM
- TGI (SF-539 CNS): 30.4 µM
- TGI (COLO 205 colon): 28.8 µM
- TGI (RPMI-8226 leukemia): 17.7 µM
- TGI (M14 melanoma): 26.1 µM
- TGI (OVCAR-4 ovarian): 97.9 µM
- TGI (A549 NSCLC): 30 µM
- TGI (HOP-92 NSCLC): 40.6 µM
- TGI (EKVX NSCLC): > 100 µM
- TGI (PC-3 prostate): > 68.2 µM
- TGI (TK-10 renal): > 87.4 µM
- TGI (HS 578T breast): > 73.4 µM
- TGI (UACC-257 melanoma): 39.6 µM
- TGI (HCT-116 colon): > 68 µM
- TGI (LOX IMVI melanoma): 35.8 µM
- TGI (SR leukemia): 3.79 µM
- TGI (SW-620 colon): > 45.8 µM

SMILES: COc1cc(OC)cc(C(=O)Cc2c(C(=O)c3ccccc3)c3ccccc3n2C(=O)c2ccccc2)c1
- TGI (U251 CNS): > 100 µM
- TGI (CAKI-1 renal): > 100 µM
- TGI (HT29 colon): > 100 µM
- TGI (NCI-H226 lung): > 100 µM
- TGI (SN12C renal): > 100 µM
- TGI (ACHN renal): > 100 µM
- TGI (DLD-1 colon): > 100 µM
- TGI (SF-268 CNS): > 100 µM
- TGI (HCC-2998 colon): > 100 µM
- TGI (SF-295 CNS): 94.9 µM
- TGI (KM20L2 colon): > 100 µM
- TGI (SNB-19 CNS): 69 µM
- TGI (SK-MEL-5 melanoma): 35.1 µM
- TGI (HL-60(TB) leukemia): > 100 µM
- TGI (HOP-62 NSCLC): > 100 µM
- TGI (NCI-H460 lung): > 100 µM
- TGI (KM12 colon): > 100 µM
- TGI (786-0 renal): > 100 µM
- TGI (CCRF-CEM leukemia): > 100 µM
- TGI (OVCAR-8 ovarian): > 100 µM
- TGI (RXF 393 renal): > 100 µM
- TGI (UACC-62 melanoma): > 100 µM
- TGI (SNB-75 CNS): > 100 µM
- TGI (SK-OV-3 ovarian): 99.8 µM
- TGI (K-562 leukemia): > 100 µM
- TGI (OVCAR-5 ovarian): > 100 µM
- TGI (HCT-15 colon): > 100 µM
- TGI (MALME-3M melanoma): > 100 µM
- TGI (A498 renal): 92.5 µM
- TGI (MOLT-4 leukemia): > 100 µM
- TGI (SK-MEL-28 melanoma): > 100 µM
- TGI (SK-MEL-2 melanoma): 65.9 µM
- TGI (UO-31 renal): > 100 µM
- TGI (NCI-H522 lung): 45 µM
- TGI (NCI-H23 lung): > 100 µM
- TGI (OVCAR-3 ovarian): > 100 µM
- TGI (IGROV1 ovarian): > 100 µM
- TGI (SF-539 CNS): > 100 µM
- TGI (LXFL 529 NSCLC): > 100 µM
- TGI (COLO 205 colon): 93.4 µM
- TGI (RPMI-8226 leukemia): > 100 µM
- TGI (M14 melanoma): > 100 µM
- TGI (SNB-78 CNS): > 100 µM
- TGI (OVCAR-4 ovarian): > 100 µM
- TGI (A549 NSCLC): > 100 µM
- TGI (HOP-92 NSCLC): 31.3 µM
- TGI (EKVX NSCLC): > 100 µM
- TGI (DMS 114 small cell lung): > 100 µM
- TGI (XF 498 CNS): 73.6 µM
- TGI (TK-10 renal): 98.3 µM
- TGI (HCT-116 colon): > 100 µM
- TGI (LOX IMVI melanoma): > 100 µM
- TGI (DMS 273 small cell lung): > 100 µM
- TGI (M19-MEL melanoma): > 100 µM
- TGI (SR leukemia): > 100 µM
- TGI (SW-620 colon): > 100 µM
